From US20260271928A1, “CONTROL OF PESTS RESISTANT TO INSECTICIDES” (Syngenta Crop Protection Ag, priority 2023, published 2026)

Legend:
Type in all cases: in vivo
Bemisia tabaci = Bemisia tabaci (cotton whitefly), adult, feeding/contact (sBT); conditions: sensitive strain, adults on cotton leaf discs, mortality 4 days after treatment; 0 = BP80 >50 ppm
Protocol: Bemisia tabaci (Cotton Whitefly), Adult, Feeding/Contact (sBT)
(§1) Cotton leaf discs were placed upside down in petri dishes on water agar and treated with the diluted test solutions in a spray chamber. After drying, leaf discs were infested with 10 adult Bemisia tabaci. Dishes were covered with a fabric filter and sealed with a perforated plastic lid. 4 days after treatment samples were assessed for mortality.

Resistant Bemisia tabaci = Resistant Bemisia tabaci (rBT); conditions: resistant strain biotype Q, adults on cotton leaf discs, mortality 4 days after treatment; 0 = BP80 >50 ppm
Protocol: as §1
Resistant Bemisia tabaci (rBT)
Biotype Q originally field-collected in 2000 from Almeria, Spain. […] The strain carried the mutation L925I in the voltage-gated sodium channel conferring resistance to pyrethroids. It also had higher expression of the p450 CYP6CM1 conferring metabolic resistance to neonicotinoids.

Resistant Myzus persicae = Resistant Myzus persicae (rMP); conditions: resistant strain, pepper plants, spray, mortality 5 days after treatment; 0 = BP80 >50 ppm
Myzus persicae = Myzus persicae (green peach aphid), mixed population, feeding/contact (sMP); conditions: sensitive strain, pepper plants, spray, mortality 5 days after treatment; 0 = BP80 >50 ppm
Protocol: Myzus persicae (Green Peach Aphid), Mixed Population, Feeding/Contact (sMP)
Pepper plants were infested with an Myzus persicae population of mixed ages. One day after infestation the plants were treated with the diluted test solutions in a spray chamber. 5 days after treatment samples were assessed for mortality.

Structure (SMILES): CC[S@@](=N)(=O)c1cc(C2(C#N)CC2)cnc1-c1nc2cc(C(F)(F)F)cnc2n1C [P24, (R)-1-[5-(ethyl-sulfonimidoyl)-6-[3-methyl-6-(trifluoromethyl)imidazo[4,5-b]pyridin-2-yl]-3-pyridyl]cyclo-propanebonitrile]
- pBP80 sBT (Bemisia tabaci): 5.1
- pBP80 rBT (Resistant Bemisia tabaci): 3.9
- pBP80 r-MP (Resistant Myzus persicae): 4.5
- pBP80 s-MP (Myzus persicae): 5.2
